Measured values taken from patent US6413952B1, “Agonizing dimeric cell-surface receptors with a receptor binding moiety and chelating metal” (SmithKline Beecham Corporation, priority 1997, dated 2002).
“Also recorded” adds a separate entry of the source.

What was measured:
[1] = target: T1, G-CSF receptor (Mus musculus, UniProt P40223); experiment: Luciferase reporter gene assay on G-CSF-responsive NFS60 cell line; type: cell-based, murine; conditions: NFS60 cells, absence of zinc (FIG. 1)
T1 construct: they express endogenous G-CSF receptors; endogenous in cells; host or cells: NFS60 murine myeloid cell line with a G-CSF-responsive luciferase reporter
T1 sequence (P40223 26-837): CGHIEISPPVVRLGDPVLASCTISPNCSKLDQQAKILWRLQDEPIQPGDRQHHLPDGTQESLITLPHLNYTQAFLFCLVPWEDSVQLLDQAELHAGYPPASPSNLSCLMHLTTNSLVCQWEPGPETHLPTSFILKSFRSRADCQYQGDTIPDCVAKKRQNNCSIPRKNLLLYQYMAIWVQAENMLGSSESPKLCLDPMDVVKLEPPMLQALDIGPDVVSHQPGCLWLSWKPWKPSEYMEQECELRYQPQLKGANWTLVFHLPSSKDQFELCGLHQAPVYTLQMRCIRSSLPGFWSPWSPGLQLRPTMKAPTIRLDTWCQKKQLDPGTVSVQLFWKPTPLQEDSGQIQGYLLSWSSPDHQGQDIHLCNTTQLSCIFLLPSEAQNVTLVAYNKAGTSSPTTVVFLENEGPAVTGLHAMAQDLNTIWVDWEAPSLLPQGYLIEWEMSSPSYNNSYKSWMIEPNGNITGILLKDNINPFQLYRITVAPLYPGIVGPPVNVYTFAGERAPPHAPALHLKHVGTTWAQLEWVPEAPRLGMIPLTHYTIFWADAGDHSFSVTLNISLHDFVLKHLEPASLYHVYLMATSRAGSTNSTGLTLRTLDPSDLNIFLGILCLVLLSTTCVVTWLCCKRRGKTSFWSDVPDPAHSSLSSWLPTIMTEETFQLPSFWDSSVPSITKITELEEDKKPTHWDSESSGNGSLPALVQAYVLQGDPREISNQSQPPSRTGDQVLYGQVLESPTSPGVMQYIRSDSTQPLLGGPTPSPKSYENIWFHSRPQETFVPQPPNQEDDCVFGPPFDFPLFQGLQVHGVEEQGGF
Experimental: Activity of compound 1a is below the threshold of 150% over background. The study was performed as a Luciferase assay configured on the G-CSF-responsive NFS60 cell line as described in Tian et al., Science 281, 257-259 (1998). The experiments shown in FIGS. 2-8 used the same NFS60 cell line.
Compounds of the present invention are tested for potency as agonist of a dimeric cell-surface receptor in a Luciferase reporter gene assay such as described in Tian et al., Science 281, 257-259 (1998). For example, for G-CSF NFS60 cells (Holmes, et al., Proc. Natl. Acad. Sci. USA 82: 6687-6691 (1985)) are selected because they express endogenous G-CSF receptors closely matching the pattern of STAT (signal transducers and activators of transcription) activation observed in primary murine and human bone marrow cells.

[2] = target: T1, G-CSF receptor; experiment: Luciferase assay on NFS60 cells in the presence of EDTA / metal chlorides; type: cell-based, murine; conditions: for effect of EDTA on agonist (luciferase) activity: EDTA 1.2 and 5 millimolar, media contained 1-5 uM zinc(II) (FIGS. 3, 4)
Experimental: FIG. 3 is an analysis of the effect of ethylenediaminetetraacetic acid (as used herein—EDTA) on the activity of Compound 1a (from Example 1) in NFS60 cells. Shown are luciferase response curves of Compound 1a at the indicated concentrations and in the presence of various concentrations of EDTA. […] The media in this assay contained a small amount (1-5 uM) of zinc(II).
FIG. 4 is an analysis of the effect of EDTA on the activity of recombinant G-CSF on NFS60 cells. Shown are luciferase response curves of recombinant G-CSF at the indicated concentrations and in the presents of various concentrations of EDTA. EDTA at both 1.2 and 5 millimolar has little effect on the activity of recombinant G-CSF in the assay.
FIGS. 5 and 6 depict an analysis of the activity of metal chlorides alone on the basal luciferase level of NFS60 cells. Shown are luciferase response curves of the indicated metal chlorides at various concentrations. None of the metals have a meaningful effect on the basal luciferase levels at concentrations equal or less than 10 micromolar.
FIGS. 7 and 8 show an analysis of the effect of metal chlorides on the EDTA depleted activity of Compound 1a on NFS60 cells. Shown are luciferase response curves as effected by the indicated metal chlorides. […] None of the other metals tested could overcome the inhibitory effect of EDTA.
In order to determine the requisiteness of metal chelation of small organic molecules to agonist activity at dimeric cell-surface receptors, the above luciferase assay was performed on the G-CSF receptor in the presence of EDTA. EDTA is a strong metal chelator and had as its only effect, the removal of zinc and other metals from the ligand-receptor interaction.

Molecule	luciferase activity over background [1]	effect of EDTA on agonist (luciferase) activity [2]	effect of metal chlorides on the EDTA depleted luciferase activity of Compound 1a ([2]; 50 micromolar EDTA, metal 0.5-10 micromolar (FIGS. 7, 8))
c1ccc(C23NC(=Nc4nc5ccccc5[nH]4)NC2(c2ccccn2)NC(=Nc2nc4ccccc4[nH]2)N3)nc1 (stereo not shown) [Compound 1a, 2,5-Bis[2-benzimidazolylimino]-3a,6a-bis(2-pyridyl)-1,2,3,3a,4,5,6,6a-octahydroimidazo[4,5-d]imidazole]	< 150%	antagonized the activity; also recorded: abrogated	–
zinc (II) [reference compound]	–	–	can overcome the inhibition in luciferase activity
recombinant G-CSF: the natural ligand (i.e. G-CSF or recombinant G-CSF) of the G-CSF receptor (protein, UniProt P09919 31-207, looked up) Granulocyte …: TPLGPASSLPQSFLLKCLEQVRKIQGDGAALQEKLVSECATYKLCHPEELVLLGHSLGIPWAPLSSCPSQALQLAGCLSQLHSGLFLYQGLLQALEGISPELGPTLDTLQLDVADFATTIWQQMEELGMAPALQPTQGAMPAFASAFQRRAGGVLVASHLQSFLEVSYRVLRHLAQP	–	little effect; also recorded: not mediated by metal ions	–
